From patent US20220195066A1, “ANTI-CEA IMMUNOCONJUGATES, AND USES THEREOF” (BOLT BIOTHERAPEUTICS, INC., priority 2020, published 2022)

Key:
[1] = biological target: T1, human TLR7 (Homo sapiens, UniProt Q9NYK1); assay: HEK Reporter Assay, HEK293 NFKB reporter cells expressing human TLR7; type: cell-based; settings: read-out: HEK293 hTLR7 EC50
T1 construct: host or cells: HEK293 NF-kB reporter cells
T1 sequence (Q9NYK1 27-1049): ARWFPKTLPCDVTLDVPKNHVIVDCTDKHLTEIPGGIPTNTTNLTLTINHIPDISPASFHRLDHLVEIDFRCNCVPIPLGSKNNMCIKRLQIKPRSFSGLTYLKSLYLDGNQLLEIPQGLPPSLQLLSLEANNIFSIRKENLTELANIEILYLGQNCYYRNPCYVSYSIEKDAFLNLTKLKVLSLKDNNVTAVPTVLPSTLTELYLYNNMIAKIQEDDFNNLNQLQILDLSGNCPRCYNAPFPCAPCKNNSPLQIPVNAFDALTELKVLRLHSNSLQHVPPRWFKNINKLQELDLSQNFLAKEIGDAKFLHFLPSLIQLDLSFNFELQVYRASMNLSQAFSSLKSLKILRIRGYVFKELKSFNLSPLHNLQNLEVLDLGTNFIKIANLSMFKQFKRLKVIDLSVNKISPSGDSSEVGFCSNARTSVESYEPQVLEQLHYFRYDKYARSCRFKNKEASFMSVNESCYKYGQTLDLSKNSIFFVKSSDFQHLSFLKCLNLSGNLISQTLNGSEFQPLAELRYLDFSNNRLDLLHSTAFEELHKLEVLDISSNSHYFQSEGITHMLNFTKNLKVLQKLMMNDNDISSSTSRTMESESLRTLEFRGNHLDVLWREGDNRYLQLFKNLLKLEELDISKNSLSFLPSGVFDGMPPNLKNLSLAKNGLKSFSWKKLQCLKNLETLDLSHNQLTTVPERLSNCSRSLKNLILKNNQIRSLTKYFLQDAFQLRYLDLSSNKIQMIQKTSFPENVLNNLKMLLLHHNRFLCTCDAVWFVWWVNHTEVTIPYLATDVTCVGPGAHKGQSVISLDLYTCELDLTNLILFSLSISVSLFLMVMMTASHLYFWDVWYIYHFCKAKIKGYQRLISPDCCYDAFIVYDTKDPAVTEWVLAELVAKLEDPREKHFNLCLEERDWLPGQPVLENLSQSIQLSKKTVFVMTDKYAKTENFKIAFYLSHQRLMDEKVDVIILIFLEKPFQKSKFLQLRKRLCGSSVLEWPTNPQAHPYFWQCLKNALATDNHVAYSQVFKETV
Description: (§1) Each compound was synthesized, purified, and characterized by mass spectrometry and shown to have the mass indicated. Additional experimental procedures are found in the Examples. Activity against Human Embryonic Kidney (HEK) 293 NFKB reporter cells expressing human TLR7 or human TLR8 was measured according to Example 202.
(§2) Human Embryonic Kidney (HEK293) reporter cells expressing human TLR7 or human TLR8 (InvivoGen, San Diego Calif.), were used with vendor protocols for cellular propagation and experimentation. Briefly, cells were grown to 80-85% confluence at 5% CO2 in DMEM supplemented with 10% FBS, ZEOCIN™, and Blasticidin. Cells were then seeded in 96-well flat plates at 4×10^4 cells/well with substrate containing HEK detection medium and immunostimulatory molecules.

[2] = biological target: T2, human TLR8 (Homo sapiens, UniProt Q9NR97); assay: HEK Reporter Assay, HEK293 NFKB reporter cells expressing human TLR8; type: cell-based; settings: read-out: HEK293 hTLR8 EC50
T2 construct: host or cells: HEK293 NF-kB reporter cells
T2 sequence (Q9NR97 27-1041): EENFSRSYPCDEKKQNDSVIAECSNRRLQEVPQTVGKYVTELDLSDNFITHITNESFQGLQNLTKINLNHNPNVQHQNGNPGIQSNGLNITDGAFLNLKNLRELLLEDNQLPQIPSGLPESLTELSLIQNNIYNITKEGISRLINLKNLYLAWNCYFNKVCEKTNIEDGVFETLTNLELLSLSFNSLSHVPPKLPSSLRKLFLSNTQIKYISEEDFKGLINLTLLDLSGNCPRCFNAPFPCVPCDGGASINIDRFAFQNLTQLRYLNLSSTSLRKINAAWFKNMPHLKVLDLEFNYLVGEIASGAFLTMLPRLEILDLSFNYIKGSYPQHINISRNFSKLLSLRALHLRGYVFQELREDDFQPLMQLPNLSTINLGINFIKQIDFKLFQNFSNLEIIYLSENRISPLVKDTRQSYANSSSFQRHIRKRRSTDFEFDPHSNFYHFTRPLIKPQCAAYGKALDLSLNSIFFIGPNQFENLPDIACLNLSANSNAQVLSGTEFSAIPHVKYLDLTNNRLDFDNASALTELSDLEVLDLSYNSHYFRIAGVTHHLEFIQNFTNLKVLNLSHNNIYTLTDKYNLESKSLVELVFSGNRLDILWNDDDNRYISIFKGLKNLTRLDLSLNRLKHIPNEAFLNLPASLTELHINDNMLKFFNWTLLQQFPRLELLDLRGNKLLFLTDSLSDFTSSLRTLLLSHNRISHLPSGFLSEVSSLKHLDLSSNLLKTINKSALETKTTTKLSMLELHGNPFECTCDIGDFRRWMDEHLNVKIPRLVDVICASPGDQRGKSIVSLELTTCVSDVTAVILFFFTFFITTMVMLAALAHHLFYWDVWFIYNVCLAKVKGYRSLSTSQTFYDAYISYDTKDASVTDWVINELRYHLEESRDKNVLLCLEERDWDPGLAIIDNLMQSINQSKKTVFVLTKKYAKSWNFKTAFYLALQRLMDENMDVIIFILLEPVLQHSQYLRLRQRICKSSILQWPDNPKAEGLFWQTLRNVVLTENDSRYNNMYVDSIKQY
Description: as §1, §2

EC50 [1]	EC50 [2]	Compound
35 nM	10 nM	CCCN(OCCNC(=O)OC1CCC1)C(=O)C1=Cc2ccc(-c3cnc(CN)nc3)cc2N=C(N)C1 [HxBz-15, cyclobutyl N-[2-[[2-amino-8-[2-(aminomethyl)pyrimidin-5-yl]-3H-1-benzazepine-4-carbonyl]-propyl-amino]oxyethyl]carbamate]
2660 nM	339 nM	CCCN(OCC)C(=O)C1=Cc2ccc(-c3ccc(C(=O)OC)nn3)cc2N=C(N)C1 [HxBz-6]
393 nM	40 nM	CCCN(OC(C)C)C(=O)C1=Cc2ccc(-c3cnc(CN)nc3)cc2N=C(N)C1 [HxBz-30]
3260 nM	350 nM	CCCN(OCC)C(=O)C1=Cc2ccc(-c3cnc(N4CCN(C(=O)OC(C)(C)C)CC4)nc3)cc2N=C(N)C1 [HxBz-4, tert-butyl 4-[5-[2-amino-4-[ethoxy (propyl)carbamoyl]-3H-1-benzazepin-8-yl]pyrimidin-2-yl]piperazine-1-carboxylate]
159 nM	6 nM	CCCN(OCC)C(=O)C1=Cc2ccc(-c3cnc(C(=O)N4CCC[C@H]4C(=O)OC)nc3)cc2N=C(N)C1 [HxBz-12]

The remaining lines, values behind:

Compound	EC50 [1]	EC50 [2]
CCCN(OCC)C(=O)C1=Cc2ccc(N3CCNCC3)cc2N=C(N)C1 [HxBz-18]	6310 nM	281 nM
CCCN(OCC)C(=O)C1=Cc2ccc(-c3cncc(S(=O)(=O)N4CC(CN)C4)c3)cc2N=C(N)C1 [HxBz-7, 2-amino-8-[5-[3-(aminomethyl)azetidin-1-yl]sulfonyl-3-pyridyl]-N-ethoxy-N-propyl-3H-1-benzazepine-4-carboxamide]	3630 nM	335 nM
CCCN(CCCNC(=O)OC1CCC1)C(=O)C1=Cc2ccc(-c3cncc(S(=O)(=O)N4CC(CN)C4)c3)cc2N=C(N)C1 [HxBz-32, cyclobutyl N-[3-[[2-amino-8-[5-[3-(aminomethyl)azetidin-1-yl]sulfonyl-3-pyridyl]-3H-1-benzazepine-4-carbonyl]-propyl-amino]propyl]carbamate]	1280 nM	1520 nM
